As a reminder, the Kd is the concentration at which binding is half-saturated. A word on the koff: it is the rate constant with which the complex falls apart. A lower koff goes with slow dissociation. The term kon denotes the rate constant with which the complex forms.

Like-named read-outs stand apart in the source and are kept apart here.

For assay [1], the target named is T1, Blon_0883 (BiGFL-BP) (Bifidobacterium longum, UniProt A0AAX1LHV4).
T1 construct: gene msmE_4; mature peptide, amino acids 24-460, signal peptide removed; N-terminal TEV-cleavable His tag cut; E. coli BL21(DE3)
T1 sequence (A0AAX1LHV4 24-445): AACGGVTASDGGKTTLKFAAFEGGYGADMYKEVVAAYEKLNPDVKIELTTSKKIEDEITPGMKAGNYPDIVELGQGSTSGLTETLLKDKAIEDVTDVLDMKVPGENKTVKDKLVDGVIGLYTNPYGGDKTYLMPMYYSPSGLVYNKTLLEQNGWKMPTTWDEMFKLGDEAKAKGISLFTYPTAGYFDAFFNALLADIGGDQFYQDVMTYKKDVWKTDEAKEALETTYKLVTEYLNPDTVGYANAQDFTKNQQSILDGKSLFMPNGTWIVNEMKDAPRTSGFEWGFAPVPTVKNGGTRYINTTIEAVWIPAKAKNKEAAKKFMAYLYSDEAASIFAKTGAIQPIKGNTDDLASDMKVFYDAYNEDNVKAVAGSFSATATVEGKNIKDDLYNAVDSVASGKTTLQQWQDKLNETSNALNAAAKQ
The assay is described as follows: surface plasmon resonance, steady state. The assay is classed as binding. To be noted: 25 °C, pH 6.5, 10 mM sodium phosphate, 150 mM NaCl, 0.005% P20; protein amine-coupled to CM5 chip. The source says: surface plasmon resonance, steady state on Blon_0883 (BiGFL-BP)
For orientation: SPR reads the build-up and loss of mass on a sensor chip optically.

In assay [2] the target is T1, Blon_0883 (BiGFL-BP). The assay is described as follows: biochemical. Details: SPR (Biacore T100), immobilized Blon_0883 on CM5 chip, 25 °C, pH 6.5; kinetic and steady-state fits. To be noted: SPR kinetic global fit; for kon: read-out: kon (×10^6 M^-1s^-1). As for the experimental part:
(§1) Affinity of Blon_0883 to oligosaccharides was also determined using a Biacore T100 (GE Healthcare). The protein was diluted into 10 mM sodium acetate (pH 4.2) to 2.0 µM and immobilized on a CM5 sensor chip using random amine coupling kit (GE Healthcare) to a density of 3,077 response units (RU) and the sensograms were recorded at 25°C in the same buffer used for the ITC (including 150 mM NaCl and 0.005% P20 surfactant) and analyzed as described ([24]). Experiments were performed in independent duplicates in the range 3.42–2,500 nM for LNB, GNB, Lewis A triose and Blood group H antigen triose. Binding was also tested using 0.1 µM–100 mM Lac, Gal, 3FL, 3SL, DFL LNT, and di-N-acetyl-lactosamine. The mature peptide of Blon_0883 was produced and purified to electrophoretic homogeneity. The binding affinity and thermodynamics of the transport protein were analyzed using isothermal titration calorimetry (ITC) and surface plasmon resonance (SPR) (Fig. 1; Fig. S1; Table S1). Among the tested ligands, the highest affinities were measured toward LNB and GNB. The binding of both ligands was driven by favorable enthalpy, similar to other saccharide-specific SBP ([21]) (Table 1). The Lewis a (Le^a) and blood group H type 1 antigen (H1) trisaccharides were both bound with about four-fold lower affinity than the preferred LNB ligand. […] Panels A through D depict representative binding isotherms based on technical triplicates. The circles are blank and reference-corrected binding levels, and the solid lines are the fits of a one binding site model to the steady state data. Panels E and F depict the blank and reference-corrected sensograms in gray, and the green lines are the global fits of a kinetic one site binding model to the binding sensograms.

In assay [3] the target is T1, Blon_0883 (BiGFL-BP). Details: SPR (Biacore T100), immobilized Blon_0883 on CM5 chip, 25 °C, pH 6.5; kinetic and steady-state fits. To be noted: binder. The protocol:
as §1

In assay [4] the target is T1, Blon_0883 (BiGFL-BP). The assay is described as follows: isothermal titration calorimetry. The class given is binding. To be noted: 25 °C, pH 6.5, 10 mM sodium phosphate; one-site model; free protein in solution. From the text: isothermal titration calorimetry on Blon_0883 (BiGFL-BP)
(In general: ITC needs no label: the signal is the heat of the interaction.)

Setting [5] is: SPR kinetic global fit, read-out: Kd Kinetics.

On Blon_0883 (BiGFL-BP) [1], `CC(=O)N[C@H]1C(O)O[C@H](CO)[C@@H](O)[C@@H]1O[C@@H]1O[C@H](CO)[C@H](O)[C@H](O)[C@H]1O[C@@H]1O[C@@H](C)[C@@H](O)[C@@H](O)[C@@H]1O` (stereo partly drawn) [H1] returned a Kd of 158 ± 9 nM. Besides, at Blon_0883 (BiGFL-BP) [2], the koff was determined as 0.17 ± 0.002 s⁻¹ and the on-rate constant (kon) worked out at 4.8e+06 ± 60000 M⁻¹ s⁻¹. For the same compound, the Kd at Blon_0883 (BiGFL-BP) [3] (setting [5]) was 37 nM.

On to `CC(=O)N[C@H]1C(O)O[C@H](CO)[C@H](O)[C@@H]1O[C@@H]1O[C@H](CO)[C@H](O)[C@H](O)[C@H]1O` (stereo partly drawn) [GNB, Galβ1,3GalNAc], for which the Kd on Blon_0883 (BiGFL-BP) [4] is 169 nM; at Blon_0883 (BiGFL-BP) [3] (setting [5]), 42 nM; on Blon_0883 (BiGFL-BP) [3] (SPR steady-state fit), 62 ± 4 nM. Also, at Blon_0883 (BiGFL-BP) [2], the koff was determined as 0.04 ± 0.003 s⁻¹. On Blon_0883 (BiGFL-BP) [2], the association rate constant (kon) came to 850000 ± 4000 M⁻¹ s⁻¹.

For `CC(=O)N[C@H]1C(O)O[C@H](CO)[C@@H](O)[C@@H]1O[C@@H]1O[C@H](CO)[C@H](O)[C@H](O)[C@H]1O` (stereo partly drawn) [LNB, Galβ1,3GlcNAc], the Kd at Blon_0883 (BiGFL-BP) [4] was 68.5 nM; at Blon_0883 (BiGFL-BP) [3] (setting [5]) it was 11 nM; on Blon_0883 (BiGFL-BP) [3] (SPR steady-state fit), 32.5 ± 3.2 nM. Also, the koff at Blon_0883 (BiGFL-BP) [2] stood at 0.16 ± 0.003 s⁻¹. The kon on Blon_0883 (BiGFL-BP) [2] was determined as 1.46e+07 ± 30000 M⁻¹ s⁻¹.

In the case of `CC(=O)N[C@H]1C(O)O[C@H](CO)[C@@H](O[C@@H]2O[C@@H](C)[C@@H](O)[C@@H](O)[C@@H]2O)[C@@H]1O[C@@H]1O[C@H](CO)[C@H](O)[C@H](O)[C@H]1O` (stereo partly drawn) [Le^a], the results for the Kd on Blon_0883 (BiGFL-BP) [1] and on Blon_0883 (BiGFL-BP) [3] (setting [5]) were 146 ± 12 nM and 49 nM, respectively. Moreover, on Blon_0883 (BiGFL-BP) [2], the koff came out at 0.14 ± 0.0005 s⁻¹. In addition, the on-rate constant (kon) at Blon_0883 (BiGFL-BP) [2] amounted to 3e+06 ± 10000 M⁻¹ s⁻¹.

Source of the values: PMC12345172, “Uptake of fucosylated type I human milk oligosaccharide blocks by Bifidobacterium longum subsp. infantis” (mBio, 2025).
